In patent publication US6737383B1, “Herbicidal oxadiazolidines” (priority 1999, dated 2004):

Assays:
corn = test: Test B pre/postemergence corn; type: in vivo, Zea mays
How it was run: (§1)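 Test chemicals in a non-phytotoxic solvent mixture with surfactant were sprayed preemergence onto planted seeds and postemergence onto plants 2 to 18 cm tall (1- to 4-leaf stage). After twelve to sixteen days in a greenhouse, injury was visually rated against untreated controls from 0 (no effect) to 10 (complete control).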

duck salad = test: Test B flood test duck salad; type: in vivo, Heteranthera limosa
How it was run: (§2)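 Flood test on plants grown to the 2-leaf stage; treated plants kept in greenhouse twelve to sixteen days, then visually rated against controls on a 0 (no effect) to 10 (complete control) scale.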

purple nutsedge = test: Test B pre/postemergence purple nutsedge; type: in vivo, Cyperus rotundus
How it was run: as §1

blackgrass = test: Test B pre/postemergence blackgrass; type: in vivo, Alopecurus myosuroides
How it was run: as §1

rape = test: Test B pre/postemergence rape; type: in vivo, Brassica napus
How it was run: as §1

soybean = test: Test B pre/postemergence soybean; type: in vivo, Glycine max
How it was run: as §1

smallflower flatsedge = test: Test B flood test smallflower flatsedge; type: in vivo, Cyperus difformis
How it was run: as §2

bedstraw = test: Test B pre/postemergence bedstraw; type: in vivo, Galium aparine
How it was run: as §1

velvetleaf = test: Test B pre/postemergence velvetleaf; type: in vivo, Abutilon theophrasti
How it was run: as §1

surinam grass = test: Test B pre/postemergence surinam grass; type: in vivo, Brachiaria decumbens
How it was run: as §1

giant foxtail = test: Test B pre/postemergence giant foxtail; type: in vivo, Setaria faberii
How it was run: as §1

pigweed = test: Test B pre/postemergence pigweed; type: in vivo, Amaranthus retroflexus
How it was run: as §1

bamyardgrass = test: Test B flood test barnyardgrass; type: in vivo, Echinochloa crus-galli
How it was run: as §2

morningglory = test: Test B pre/postemergence morningglory; type: in vivo, Ipomoea hederacea
How it was run: as §1

cocklebur = test: Test B pre/postemergence cocklebur; type: in vivo, Xanthium strumarium
How it was run: as §1

sugar beet = test: Test B pre/postemergence sugar beet; type: in vivo, Beta vulgaris
How it was run: as §1

[1] = Preemergence, Rate 62 g/ha, scale of 0 to 10 where 0 is no effect and 10 is complete control
[2] = Preemergence, Rate 250 g/ha, scale of 0 to 10 where 0 is no effect and 10 is complete control
[3] = Preemergence, Rate 500 g/ha, scale of 0 to 10 where 0 is no effect and 10 is complete control
[4] = Rate 62 g/ha, Postemergence, scale of 0 to 10 where 0 is no effect and 10 is complete control
[5] = Rate 125 g/ha, Postemergence, scale 0 to 10
[6] = Rate 125 g/ha, Preemergence, scale of 0 to 10 where 0 is no effect and 10 is complete control
[7] = Rate 500 g/ha, Postemergence, scale 0 to 10, 0 no effect, 10 complete control
[8] = Rate 62 g/ha, headed Pre-emergence (flood test species), scale 0 to 10 (0 no effect, 10 complete control)
[9] = Rate 125 g/ha, Pre-emergence, flood test species, scale 0 to 10 where 0 is no effect and 10 is complete control
[10] = Rate 250 g/ha, Pre-emergence, flood-test species, scale 0 to 10, 0 is no effect, 10 is complete control
[11] = Rate 500 g/ha, Pre-emergence, flood test species, scale 0 to 10 (0 no effect, 10 complete control)

## Cc1nc(C)c(Cn2c(=O)on(C(=O)N(c3ccc(F)cc3)C(C)C)c2=O)s1 [Compound 232]
corn; [1]
  Corn plant response rating: 0
corn; [2]
  Corn plant response rating: 0
corn; [3]
  Plant response rating, Corn: 0
corn; [4]
  Corn plant response rating: 0
corn; [5]
  Corn plant response rating: 0
corn; [6]
  Corn plant response rating: 0
corn; Rate 250 g/ha, Postemergence
  Plant response rating (0 to 10; 0 is no effect, 10 is complete control), Corn: 0
corn; [7]
  Corn plant response rating: 0
Duck salad; [8]
  Ducksalad plant response rating: 0
Duck salad; [9]
  Ducksalad plant response rating: 0
Duck salad; [10]
  Ducksalad plant response rating: 0
Duck salad; [11]
  Ducksalad plant response rating: 0
Purple nutsedge; [1]
  Nutsedge plant response rating: 0
Purple nutsedge; [4]
  Nutsedge plant response rating: 0
Purple nutsedge; [5]
  Nutsedge plant response rating: 0
Purple nutsedge; [6]
  Nutsedge plant response rating: 0
Purple nutsedge; Rate 250 g/ha, Postemergence
  Plant response rating (0 to 10; 0 is no effect, 10 is complete control), Nutsedge: 0
Purple nutsedge; [7]
  Nutsedge plant response rating: 0
blackgrass; [1]
  Blackgrass plant response rating: 2
blackgrass; [2]
  Blackgrass plant response rating: 8
blackgrass; [3]
  Plant response rating, Blackgrass: 8
blackgrass; [4]
  Blackgrass plant response rating: 0
blackgrass; [5]
  Blackgrass plant response rating: 2
blackgrass; [6]
  Blackgrass plant response rating: 6
blackgrass; Rate 250 g/ha, Postemergence
  Plant response rating (0 to 10; 0 is no effect, 10 is complete control), Blackgrass: 6
blackgrass; [7]
  Blackgrass plant response rating: 7
rape; [1]
  Rape plant response rating: 0
rape; [2]
  Rape plant response rating: 0
rape; [3]
  Plant response rating, Rape: 0
rape; [4]
  Rape plant response rating: 0
rape; [5]
  Rape plant response rating: 2
rape; [6]
  Rape plant response rating: 0
rape; Rate 250 g/ha, Postemergence
  Plant response rating (0 to 10; 0 is no effect, 10 is complete control), Rape: 2
rape; [7]
  Rape plant response rating: 2
soybean; [1]
  Soybean plant response rating: 0
soybean; [2]
  Soybean plant response rating: 0
soybean; [3]
  Plant response rating, Soybean: 0
soybean; [4]
  Soybean plant response rating: 3
soybean; [5]
  Soybean plant response rating: 3
soybean; [6]
  Soybean plant response rating: 0
soybean; Rate 250 g/ha, Postemergence
  Plant response rating (0 to 10; 0 is no effect, 10 is complete control), Soybean: 4
soybean; [7]
  Soybean plant response rating: 4
Smallflower flatsedge; [8]
  S. Flatsedge plant response rating: 0
Smallflower flatsedge; [9]
  S. Flatsedge plant response rating: 0
Smallflower flatsedge; [10]
  S. Flatsedge plant response rating: 0
Smallflower flatsedge; [11]
  S. Flatsedge plant response rating: 0
bedstraw; [1]
  Bedstraw plant response rating: 0
bedstraw; [2]
  Bedstraw plant response rating: 0
bedstraw; [3]
  Plant response rating, Bedstraw: 0
bedstraw; [4]
  Bedstraw plant response rating: 0
bedstraw; [5]
  Bedstraw plant response rating: 0
bedstraw; [6]
  Bedstraw plant response rating: 0
bedstraw; Rate 250 g/ha, Postemergence
  Plant response rating (0 to 10; 0 is no effect, 10 is complete control), Bedstraw: 2
bedstraw; [7]
  Bedstraw plant response rating: 2
velvetleaf; [1]
  Velvetleaf plant response rating: 0
velvetleaf; [2]
  Velvetleaf plant response rating: 0
velvetleaf; [3]
  Plant response rating, Velvetleaf: 0
velvetleaf; [4]
  Velvetleaf plant response rating: 2
velvetleaf; [5]
  Velvetleaf plant response rating: 2
velvetleaf; [6]
  Velvetleaf plant response rating: 0
velvetleaf; Rate 250 g/ha, Postemergence
  Plant response rating (0 to 10; 0 is no effect, 10 is complete control), Velvetleaf: 2
velvetleaf; [7]
  Velvetleaf plant response rating: 3
Surinam grass; [1]
  B. signalgrass plant response rating: 0
Surinam grass; Preemergence, Rate 250 g/ha, scale 0 to 10, 0 is no effect, 10 is complete control
  B. signalgrass plant response rating: 1
Surinam grass; [3]
  Plant response rating, B. signalgrass: 5
Surinam grass; [4]
  B. signalgrass plant response rating: 0
Surinam grass; Rate 125 g/ha, Postemergence, scale 0 (no effect) to 10 (complete control)
  B. signalgrass plant response rating: 0
Surinam grass; [6]
  B. signalgrass plant response rating: 0
Surinam grass; Rate 250 g/ha, Postemergence
  Plant response rating (0 to 10; 0 is no effect, 10 is complete control), B. signalgrass: 1
Surinam grass; [7]
  B. signalgrass plant response rating: 8
Giant foxtail; [1]
  Giant foxtail plant response rating: 6
Giant foxtail; [2]
  Giant foxtail plant response rating: 8
Giant foxtail; [3]
  Plant response rating, Giant foxtail: 9
Giant foxtail; [4]
  Giant foxtail plant response rating: 0
Giant foxtail; [5]
  Giant foxtail plant response rating: 0
Giant foxtail; [6]
  Giant foxtail plant response rating: 8
Giant foxtail; Rate 250 g/ha, Postemergence
  Plant response rating (0 to 10; 0 is no effect, 10 is complete control), Giant foxtail: 2
Giant foxtail; [7]
  Giant foxtail plant response rating: 3
pigweed; [1]
  Redroot pigweed plant response rating: 0
pigweed; [2]
  Redroot pigweed plant response rating: 5
pigweed; [3]
  Plant response rating, Redroot pigweed: 7
pigweed; [4]
  Redroot pigweed plant response rating: 2
pigweed; [5]
  Redroot pigweed plant response rating: 3
pigweed; [6]
  Redroot pigweed plant response rating: 0
pigweed; Rate 250 g/ha, Postemergence
  Plant response rating (0 to 10; 0 is no effect, 10 is complete control), Redroot pigweed: 6
pigweed; [7]
  Redroot pigweed plant response rating: 4
bamyardgrass; [8]
  Barnyardgrass plant response rating: 0
bamyardgrass; [9]
  Barnyardgrass plant response rating: 0
bamyardgrass; [10]
  Barnyardgrass plant response rating: 0
bamyardgrass; [11]
  Barnyardgrass plant response rating: 0
morningglory; [1]
  Morningglory plant response rating: 0
morningglory; [2]
  Morningglory plant response rating: 0
morningglory; [3]
  Plant response rating, Morningglory: 0
morningglory; [4]
  Morningglory plant response rating: 3
morningglory; [5]
  Morningglory plant response rating: 8
morningglory; [6]
  Morningglory plant response rating: 0
morningglory; Rate 250 g/ha, Postemergence
  Plant response rating (0 to 10; 0 is no effect, 10 is complete control), Morningglory: 8
morningglory; [7]
  Morningglory plant response rating: 8
cocklebur; [1]
  Cocklebur plant response rating: 0
cocklebur; [2]
  Cocklebur plant response rating: 0
cocklebur; [3]
  Plant response rating, Cocklebur: 0
cocklebur; [4]
  Cocklebur plant response rating: 0
cocklebur; [5]
  Cocklebur plant response rating: 2
cocklebur; [6]
  Cocklebur plant response rating: 0
cocklebur; Rate 250 g/ha, Postemergence
  Plant response rating (0 to 10; 0 is no effect, 10 is complete control), Cocklebur: 2
cocklebur; [7]
  Cocklebur plant response rating: 4
Sugar beet; [1]
  Sugarbeets plant response rating: 0
Sugar beet; [2]
  Sugarbeets plant response rating: 4
Sugar beet; [3]
  Plant response rating, Sugarbeets: 4
Sugar beet; [4]
  Sugarbeets plant response rating: 0
Sugar beet; [5]
  Sugarbeets plant response rating: 2
Sugar beet; [6]
  Sugarbeets plant response rating: 0
Sugar beet; Rate 250 g/ha, Postemergence
  Plant response rating (0 to 10; 0 is no effect, 10 is complete control), Sugarbeets: 2
Sugar beet; [7]
  Sugarbeets plant response rating: 3
